Consider 1 compound from patent publication US20050113413A1, “Naphthalene-1,5-disulfonic acid salts of a substituted 4-amino-1-(pyridylmethyl)piperidine compound” (priority 2003, published 2005).

The target in series [1] is T1, hM3 muscarinic receptor subtype (Homo sapiens, UniProt P20309).
T1 construct: expressed in transfected cells; membranes prepared
Nature of the series: Radioligand binding assay ([3H]NMS displacement), hM3 relative to hM2. As to conditions: ratio of Ki values. The protocol: (§1) CHO (Chinese hamster ovary) cell lines stabilely expressing cloned human hM1, hM2, hM3 and hM4 muscarinic receptor subtypes, respectively, were grown to near confluency in medium consisting of HAM's F-12 supplemented with 10% FBS (Fetal Bovine Serum) and 250 μg/mL Geneticin. The cells were grown in a 5% CO2, 37° C. incubator and lifted with dPBS+2 mM EDTA. Cells were collected by 5 minute centrifugation at 650×g, and cell pellets were either stored frozen at −80° C. or membranes were prepared immediately. For membrane preparation, cell pellets were resuspended in lysis buffer and homogenized with a Polytron PT-2100 tissue disrupter (Kinematica AG; 20 seconds×2 bursts). Crude membranes were centrifuged at 40,000×g for 15 minutes at 4° C. […] Protein concentration of the membrane suspension was determined by the method of Lowry, O. et al., (1951) Journal of Biochemistry: 193, 265. […]
(§2) Radioligand binding assays were performed in 96-well microtiter plates in a total assay volume of 100 μL. […] Filter plates were rinsed three times with wash buffer (10 mM HEPES) to remove unbound radioactivity. […] The plates were then counted in a PerkinElmer Topcount liquid scintillation counter (PerkinElmer Inc., Wellesley, Mass.). Binding data were analyzed by nonlinear regression analysis with the GraphPad Prism Software package (GraphPad Software, Inc., San Diego, Calif.) using the one-site competition model. […]

In series [2] the target is T2, hM2 muscarinic receptor subtype (Homo sapiens, UniProt P08172).
T2 construct: expressed in transfected cells; membranes prepared
T2 sequence (P08172 1-466): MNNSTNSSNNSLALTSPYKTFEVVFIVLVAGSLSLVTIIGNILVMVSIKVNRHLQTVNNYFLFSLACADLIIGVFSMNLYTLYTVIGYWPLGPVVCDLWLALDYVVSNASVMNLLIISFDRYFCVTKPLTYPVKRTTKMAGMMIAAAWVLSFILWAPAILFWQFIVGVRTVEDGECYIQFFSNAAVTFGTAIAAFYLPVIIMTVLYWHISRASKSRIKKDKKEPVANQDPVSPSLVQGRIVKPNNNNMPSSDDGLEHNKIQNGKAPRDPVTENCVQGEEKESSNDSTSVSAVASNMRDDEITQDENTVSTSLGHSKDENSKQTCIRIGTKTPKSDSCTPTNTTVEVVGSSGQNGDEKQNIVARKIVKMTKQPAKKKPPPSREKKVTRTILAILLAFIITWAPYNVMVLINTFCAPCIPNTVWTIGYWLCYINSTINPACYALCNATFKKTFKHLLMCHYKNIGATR
Put plainly: Radioligand binding assay ([3H]NMS displacement), hM2. The settings on record: [3H]NMS at 1 nM, CHO cell membranes, 60 minutes at 37° C. The protocol:
as §1, §2

Series [3] can be described thus: Chemical stability of salt forms (change in purity by HPLC upon storage). The series is classed as physicochemical. As to conditions: 40° C. and 75% relative humidity, 7 days, HPLC Method D. The protocol: The chemical stability of each salt form was evaluated by determining the change in purity of the sample upon storage of the salt form at 40° C.
Prior to storage, each salt form was analyzed by HPLC (Method D) to determine sample purity and in particular, to determine the amount of the following impurities present in the sample: • A. 3-[4-{N-[7-(3-(S)-1-Carbamoyl-1,1-diphenylmethyl)pyrrolidin-1-yl)hept-1-yl]-N-(isopropyl)amino}piperidin-1-ylmethyl]-4-methoxy-1-methylpyridinium Salt (Impurity A); • B. 4-{N-[7-(3-(S)-1-Carbamoyl-1,1-diphenylmethyl)pyrrolidin-1-yl)hept-1-yl]-N-(isopropyl)amino}-1-(4-oxo-1,4-dihydropyrid-3-ylmethyl)piperidine (Impurity B).
Approximately 50-100 mg of the salt form was then placed in two heat sealed low density polyethylene bags. The bags were then placed into a stability chamber that was previously set at 40° C. and 75% relative humidity. After 7 days, the bags were removed and the contents were analyzed by HPLC.

T1 sequence (P20309 whole entry): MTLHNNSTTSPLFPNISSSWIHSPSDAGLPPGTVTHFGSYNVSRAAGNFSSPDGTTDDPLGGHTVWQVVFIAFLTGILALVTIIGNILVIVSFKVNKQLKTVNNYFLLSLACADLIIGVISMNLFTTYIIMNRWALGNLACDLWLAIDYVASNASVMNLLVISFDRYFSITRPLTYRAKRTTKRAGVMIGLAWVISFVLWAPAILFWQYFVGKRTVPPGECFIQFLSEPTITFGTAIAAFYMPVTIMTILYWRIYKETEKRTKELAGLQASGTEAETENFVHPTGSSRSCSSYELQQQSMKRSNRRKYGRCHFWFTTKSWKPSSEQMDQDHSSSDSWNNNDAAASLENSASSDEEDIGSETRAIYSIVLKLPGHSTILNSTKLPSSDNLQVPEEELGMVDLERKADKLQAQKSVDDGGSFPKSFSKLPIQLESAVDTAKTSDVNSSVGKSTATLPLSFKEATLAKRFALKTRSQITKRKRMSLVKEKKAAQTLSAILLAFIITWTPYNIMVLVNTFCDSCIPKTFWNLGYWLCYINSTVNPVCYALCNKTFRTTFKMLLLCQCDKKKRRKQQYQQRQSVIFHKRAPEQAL

By Ki is commonly meant a dissociation constant, usually derived from enzyme kinetics or from competition with a known ligand. Read a low Ki as tighter binding. In the case of `COc1ccncc1CN1CCC(N(CCCCCCCN2CC[C@@H](C(C(N)=O)(c3ccccc3)c3ccccc3)C2)C(C)C)CC1` [Example 6], the hM3/hM2 ratio entry in series [1] is “greater than 40”. In series [2], this compound gave a Ki of under 1 nM. For the same compound, in series [3], the “% Change in Impurity A” value was under 0.1% and the “% Change in Impurity B” value is under 0.1%. Moreover, the “% Change in Purity of Salt” value in series [3] (heat sealed polyethylene bags) is 1.2%.
